Literature values as cited in publication PMC10146264, “Safety, Pharmacokinetic and Pharmacodynamic Evaluation of Teverelix for the Treatment of Hormone-Sensitive Advanced Prostate Cancer: Phase 2 Loading-Dose-Finding Studies” (Medicina, 2023).

What was measured:
[1] = system: patients with prostate cancer; conditions: in vivo
[2] = system: patients
Excerpt: In the United States, cardiovascular disease is the main cause of death for prostate cancer patients, and patients with prostate cancer have a higher risk of death from non-cancer causes than the general population. ADT is associated with a number of cardiometabolic side effects including decreased insulin sensitivity, changes in lipid profile, and an increased risk of thromboembolic and cerebrovascular events. The risk seems to be highest in elderly patients who have had recent cardiovascular events before starting ADT [27]. According to a Scientific Statement issued by the Am ...

Compound | Incidence of injection-site reactions [1] | Major cardiovascular events, patients ([2]; phase 3 randomized trial, within the first 12 months of treatment) [%] | Major cardiovascular events, HR [95% CI] GnRH antagonist vs GnRH agonist ([2]; phase 3 trial relugolix vs leuprolide, first 12 months of treatment)
Degarelix | ~ 40% |  | 
CONC(=O)Nc1ccc(-c2sc3c(c2CN(C)C)c(=O)n(-c2ccc(OC)nn2)c(=O)n3Cc2c(F)cccc2F)cc1 [relugolix] |  | 2.9 | 0.46
